Test results as given in ChEMBL document CHEMBL4418317, “Piperidinyl- and piperazinyl-substituted heteroaromatic carboxamides as modulators of gpr6” (2018).
pEC50: −log10 of the molar value.

Biological target: G-protein coupled receptor 6 (Homo sapiens, UniProt P46095)
Assay: Modulator activity at GPR6 receptor (unknown origin) expressed in CHO-K1 cells assessed as inhibition of constitutive cAMP activity incubated for 45 mins by Eu-cAMP tracer based HTRF Ultra cAMP assay
Assay type: functional, cell-based

Chain of G-protein coupled receptor 6 (P46095 whole entry): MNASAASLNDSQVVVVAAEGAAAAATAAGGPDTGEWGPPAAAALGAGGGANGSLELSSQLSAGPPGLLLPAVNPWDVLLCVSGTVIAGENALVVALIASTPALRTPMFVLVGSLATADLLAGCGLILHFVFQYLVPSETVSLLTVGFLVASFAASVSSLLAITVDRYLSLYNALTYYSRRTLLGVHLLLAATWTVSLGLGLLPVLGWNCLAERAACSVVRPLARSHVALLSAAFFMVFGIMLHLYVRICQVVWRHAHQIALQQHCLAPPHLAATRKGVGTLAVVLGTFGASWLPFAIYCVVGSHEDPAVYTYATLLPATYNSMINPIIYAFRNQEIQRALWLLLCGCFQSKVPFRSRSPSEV

Row | SMILES | pEC50
1 | Cc1nc(C(=O)Nc2cc(C#N)ccc2N2CCC(Oc3ccc(F)cc3F)CC2)no1 | 5.70
2 | N#Cc1ccc(N2CCC(Oc3ccc(F)cc3F)CC2)c(NC(=O)c2cccn(Cc3ccccc3)c2=O)c1 | 5.70
3 | Cn1cccc(C(=O)Nc2cc(C#N)ccc2N2CCC(Oc3cc(F)cc(F)c3)CC2)c1=O | 5.70
